Reference: patent US9562035B2, “Benzamide derivative useful as FASN inhibitors for the treatment of cancer” (Janssen Pharmaceutica NV, priority 2013, dated 2017)

How the values were obtained:
[1] = molecular target: T1, hFASN enzyme (full length) (Homo sapiens, UniProt P49327); test: Fatty Acid Synthase (FASN) Inhibition Scintillation Proximity Assay; assay type: biochemical; settings: for IC50: mean where tested more than once, ~ = standard error of pIC50 larger than 0.5; for inhibition at 10 µM: read-out: FASN % Effect @1E−05M
T1 construct: 10 μL hFASN enzyme (full length, 300 ng, purified in house); made in house
T1 sequence (P49327 whole entry): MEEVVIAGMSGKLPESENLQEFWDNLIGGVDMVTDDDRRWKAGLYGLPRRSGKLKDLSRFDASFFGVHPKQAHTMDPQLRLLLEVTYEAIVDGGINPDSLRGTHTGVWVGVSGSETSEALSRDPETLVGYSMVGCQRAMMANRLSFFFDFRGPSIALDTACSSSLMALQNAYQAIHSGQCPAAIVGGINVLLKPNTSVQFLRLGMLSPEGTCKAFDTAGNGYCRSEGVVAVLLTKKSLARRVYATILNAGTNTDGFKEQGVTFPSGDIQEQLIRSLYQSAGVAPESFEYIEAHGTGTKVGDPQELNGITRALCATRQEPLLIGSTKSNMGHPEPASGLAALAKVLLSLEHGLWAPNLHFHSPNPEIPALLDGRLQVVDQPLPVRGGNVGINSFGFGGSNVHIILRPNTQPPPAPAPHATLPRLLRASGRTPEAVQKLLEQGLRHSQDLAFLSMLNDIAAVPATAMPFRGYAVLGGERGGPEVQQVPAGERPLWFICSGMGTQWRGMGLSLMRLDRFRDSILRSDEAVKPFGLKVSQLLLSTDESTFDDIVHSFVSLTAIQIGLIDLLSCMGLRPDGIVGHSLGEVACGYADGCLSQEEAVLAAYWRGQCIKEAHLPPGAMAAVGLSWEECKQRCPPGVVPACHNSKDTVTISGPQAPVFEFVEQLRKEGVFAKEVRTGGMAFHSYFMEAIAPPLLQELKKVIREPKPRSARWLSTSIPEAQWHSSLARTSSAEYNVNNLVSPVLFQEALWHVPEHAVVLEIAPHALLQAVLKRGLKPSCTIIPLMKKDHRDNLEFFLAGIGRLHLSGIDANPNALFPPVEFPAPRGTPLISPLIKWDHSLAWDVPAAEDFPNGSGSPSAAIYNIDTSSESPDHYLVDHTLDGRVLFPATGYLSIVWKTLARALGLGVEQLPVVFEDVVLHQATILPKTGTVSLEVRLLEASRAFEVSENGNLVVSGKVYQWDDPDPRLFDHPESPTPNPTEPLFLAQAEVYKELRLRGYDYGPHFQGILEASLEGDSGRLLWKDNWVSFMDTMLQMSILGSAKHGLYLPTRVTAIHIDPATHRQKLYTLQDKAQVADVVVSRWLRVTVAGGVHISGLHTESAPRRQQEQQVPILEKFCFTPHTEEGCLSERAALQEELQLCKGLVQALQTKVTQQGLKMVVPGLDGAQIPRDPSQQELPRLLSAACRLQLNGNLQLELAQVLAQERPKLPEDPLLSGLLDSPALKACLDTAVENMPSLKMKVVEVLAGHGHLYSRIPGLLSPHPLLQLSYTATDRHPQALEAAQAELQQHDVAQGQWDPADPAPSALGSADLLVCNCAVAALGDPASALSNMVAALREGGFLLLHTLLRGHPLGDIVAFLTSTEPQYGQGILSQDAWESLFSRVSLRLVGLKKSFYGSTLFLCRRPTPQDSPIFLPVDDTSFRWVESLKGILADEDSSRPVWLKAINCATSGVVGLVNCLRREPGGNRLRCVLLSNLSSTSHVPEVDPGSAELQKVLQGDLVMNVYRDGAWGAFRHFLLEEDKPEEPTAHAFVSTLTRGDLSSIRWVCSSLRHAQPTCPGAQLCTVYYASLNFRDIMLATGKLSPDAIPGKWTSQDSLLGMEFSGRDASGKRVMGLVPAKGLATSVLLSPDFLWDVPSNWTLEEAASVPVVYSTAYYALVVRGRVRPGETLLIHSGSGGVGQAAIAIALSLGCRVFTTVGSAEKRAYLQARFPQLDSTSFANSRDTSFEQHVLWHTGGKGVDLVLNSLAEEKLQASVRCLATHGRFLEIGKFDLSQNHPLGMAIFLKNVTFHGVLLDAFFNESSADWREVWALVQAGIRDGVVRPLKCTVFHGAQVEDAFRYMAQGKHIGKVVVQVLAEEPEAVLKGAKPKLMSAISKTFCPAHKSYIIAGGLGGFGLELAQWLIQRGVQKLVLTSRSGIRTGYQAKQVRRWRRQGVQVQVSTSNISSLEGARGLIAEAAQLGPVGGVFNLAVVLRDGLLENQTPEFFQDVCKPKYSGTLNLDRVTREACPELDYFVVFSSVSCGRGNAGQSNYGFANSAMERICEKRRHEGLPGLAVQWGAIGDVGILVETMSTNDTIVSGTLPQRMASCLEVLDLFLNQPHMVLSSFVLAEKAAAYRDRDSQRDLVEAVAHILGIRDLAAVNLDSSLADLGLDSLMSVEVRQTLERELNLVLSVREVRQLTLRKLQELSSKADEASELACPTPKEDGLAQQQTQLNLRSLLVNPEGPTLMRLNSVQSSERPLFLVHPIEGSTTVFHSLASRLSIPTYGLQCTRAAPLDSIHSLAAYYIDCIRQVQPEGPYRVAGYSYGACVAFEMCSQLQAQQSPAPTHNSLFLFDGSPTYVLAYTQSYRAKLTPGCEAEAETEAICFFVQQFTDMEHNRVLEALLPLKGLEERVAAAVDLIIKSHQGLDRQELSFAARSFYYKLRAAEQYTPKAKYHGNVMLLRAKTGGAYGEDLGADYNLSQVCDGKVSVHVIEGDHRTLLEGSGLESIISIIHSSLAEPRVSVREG
Method in brief: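 Eight compound concentrations (0.01–30 μM) tested in pH 7.5 phosphate buffer with DTT; human full-length enzyme converted [3H]-acetyl-CoA plus malonyl-CoA, with NADPH, over 60 min at room temperature. Hydrophobic [3H]-palmitate detected by bead proximity scintillation imaging; control-normalised data fitted for IC50/pIC50.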

[2] = molecular target: T2, FASN Keto-reductase Domain (Homo sapiens, UniProt P49327); test: Fatty Acid Synthase Keto-Reductase Domain (FASN KR) Inhibition; assay type: biochemical; settings: mean where tested more than once; read-out: FASN K-R Domain pIC50 (converted)
T2 construct: 10 μL hFASN enzyme (full length, 300 ng, purified in house) and 360 μM NADPH; made in house
T2 sequence (P49327 whole entry, the tested form may be a part): as the sequence (P49327 whole entry) above
Method in brief: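 Keto-reductase activity followed as NADPH consumption (A340 drop between 0 and 20 min, room temperature) using in-house full-length hFASN, 360 μM NADPH and ethyl acetoacetate substrate (180 mM stock), pH 7.5 phosphate buffer.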

[3] = tested on: A2780 ovarian cells; test: A2780 Ovarian Cell Proliferation Assay in Lipid Reduced Medium, without Palmitate; assay type: cell-based; settings: Homo sapiens, A2780; lipid reduced medium, without palmitate, 96 h, MTT; read-out: Proliferation A2780 w/o Palmitate pIC50 (converted)
Method in brief: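 A2780 cells were seeded in 10% FCS medium and switched next day to 10% lipid-reduced serum without palmitate. Compounds at 0.01–30 μM were added with 0.2% DMSO, 0.2% fatty-acid-free BSA and 0.25% ethanol final. After 96 h, MTT absorbance at 544 nm was normalized to plate controls, and IC50/pIC50 came from a 4-parameter logistic fit.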

[4] = tested on: A2780 ovarian cells; test: A2780 Ovarian Cell Proliferation Assay in Lipid Reduced Medium, with Palmitate (control); assay type: cell-based; settings: Homo sapiens, A2780; lipid reduced medium, 25 μM palmitate, 96 h, MTT; read-out: Proliferation A2780 with Palmitate pIC50 (converted)
Method in brief: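 Read-out was MTT absorbance at 544 nm after 96 h at 37 °C. Cells grown overnight in RPMI1640/10% FCS were moved to 10% lipid-reduced serum with compound plus palmitate (final 25 μM, 0.2% fatty-acid-free BSA, 0.2% DMSO). IC50 came from least-squares curve fitting, expressed as −log(IC50).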

Row | Structure (SMILES) | IC50 [1] [µM] | inhibition at 10 µM [1] [%] | IC50 [2] [µM] | IC50 [3] [µM] | IC50 [4] [µM]
1 | Cc1ccc(C(=O)N2CCC(c3ccc(-c4cnn(C)c4)cc3)CC2)cc1NC(=O)C1CN(C2CCCC2)C1 [Compound 187, 1-cyclopentyl-N-(2-methyl-5-(4-(4-(1-methyl-1H-pyrazol-4-yl)phenyl)piperidine-1-carbonyl)phenyl)azetidine-3-carboxamide] | 0.141 | 103 | 0.302 | ~0.282 | > 10
2 | CCCCCCN1CC(C(=O)Nc2cc(C(=O)N3CCC(c4ccc(-c5cnn(C)c5)cc4)CC3)ccc2C)C1 [Compound 243, 1-hexyl-N-(2-methyl-5-(4-(4-(1-methyl-1H-pyrazol-4-yl)phenyl)piperidine-1-carbonyl)phenyl)azetidine-3-carboxamide] | 0.129 | 105 | 0.186 | 0.24 | 7.08
3 | CCC(=O)N[C@@H]1CC[C@H](C(=O)Nc2cc(C(=O)N3CCC(c4ccc(-c5ccnn5C)cc4)CC3)ccc2C)C1 [Compound 13, (1S,3R)—N-(2-methyl-5-(4-(4-(1-methyl-1H-pyrazol-5-yl)phenyl)piperidine-1-carbonyl)phenyl)-3-propionamidocyclopentanecarboxamide] | 0.126 | 99 | 0.229 | 0.603 | > 10
4 | CCN1CC(C(=O)Nc2cc(C(=O)N3CCC(c4ccc(-c5cnn(C)c5)cc4)CC3)ccc2C)C1 [Compound 205, 1-ethyl-N-(2-methyl-5-(4-(4-(1-methyl-1H-pyrazol-4-yl)phenyl)piperidine-1-carbonyl)phenyl)azetidine-3-carboxamide] | 0.269 | 95 | 0.589 | 0.355 | > 10
5 | Cc1ccc(C(=O)N2CCC(c3ccc(-c4ccco4)cc3)CC2)cc1NC(=O)c1ccc(NC(C)C)nc1 [Compound 252, N-(5-(4-(4-(furan-2-yl)phenyl)piperidine-1-carbonyl)-2-methylphenyl)-6-(isopropylamino)nicotinamide] | 0.166 | 106 | 0.437 | 0.347 | 1.45
6 | Cc1ccc(C(=O)N2CCC(c3ccc(-c4cnn(C)c4)cc3)CC2)cc1NC(=O)[C@H]1CCCN1 [Compound 172, (R)—N-(2-methyl-5-(4-(4-(1-methyl-1H-pyrazol-4-yl)phenyl)piperidine-1-carbonyl)phenyl)pyrrolidine-2-carboxamide] | 0.49 | 91 | 0.741 | 0.794 | > 10
7 | Cc1ccc(C(=O)N2CCC(c3ccc(-c4cnn(C)c4)cc3)CC2)cc1NC(=O)c1nccs1 [Compound 198, N-(2-methyl-5-(4-(4-(1-methyl-1H-pyrazol-4-yl)phenyl)piperidine-1-carbonyl)phenyl)thiazole-2-carboxamide] | 0.135 | 100 | 0.372 | 0.603 | > 10
8 | Cc1ccc(C(=O)N2CC[C@H](c3ccc(-n4ccnc4)cc3)[C@@H](C)C2)cc1NC(=O)c1ccc(Cl)nc1 (racemic) [Compound 54, (±)-N-(5-(4-((3R,4S)-4-(1H-imidazol-1-yl)phenyl)-3-methylpiperidine-1-carbonyl)-2-methylphenyl)-6-chloronicotinamide] | 0.234 | 104 | 0.288 | 0.204 | > 10
9 | Cn1cc(-c2ccc(C3CCN(C(=O)c4ccc(OCc5ccccc5)c(NC(=O)c5ccc(Cl)nc5)c4)CC3)cc2)cn1 [Compound 262, N-(2-(benzyloxy)-5-(4-(4-(1-methyl-1H-pyrazol-4-yl)phenyl)piperidine-1-carbonyl)phenyl)-6-chloronicotinamide] | 0.263 | 89 | 1.05 | 0.617 | > 10
10 | Cc1ccc(C(=O)N2CCC(c3ccc4c(c3)CC(=O)N4)CC2)cc1NC(=O)c1ccc(Cl)nc1 [Compound 50, 6-chloro-N-(2-methyl-5-(4-(2-oxoindolin-5-yl)piperidine-1-carbonyl)phenyl)nicotinamide] | 0.309 | 93 | 0.603 | 1.23 | > 10

Stronger by IC50 [1], values ahead:

Row | IC50 [1] [µM] | inhibition at 10 µM [1] [%] | IC50 [2] [µM] | IC50 [3] [µM] | IC50 [4] [µM] | Structure (SMILES)
11 | 0.0933 | 108 | 0.182 | 0.525 | ~9.55 | Cc1ccc(C(=O)N2CC(c3ccc(-c4cnn(C)c4)cc3)C2)cc1NC(=O)c1ccc2ccccc2n1 [Compound 79, N-(2-methyl-5-(3-(4-(1-methyl-1H-pyrazol-4-yl)phenyl)azetidine-1-carbonyl)phenyl)quinoline-2-carboxamide]
12 | 0.0617 | 113 | 0.126 | 0.0724 | > 10 | CCN1CCC(C(=O)Nc2cc(C(=O)N3CCC(c4ccc(-c5cnn(C)c5)cc4)CC3)ccc2C)CC1 [Compound 168, 1-ethyl-N-(2-methyl-5-(4-(4-(1-methyl-1H-pyrazol-4-yl)phenyl)piperidine-1-carbonyl)phenyl)piperidine-4-carboxamide]
13 | 0.0479 | 101 | 0.234 | 0.447 | 5.25 | CC(C)Nc1ccc(C(=O)Nc2cc(C(=O)N3CCC(c4ccc(-c5cccnc5)cc4)CC3)ccc2Cl)cn1 [Compound 71, N-(2-chloro-5-(4-(4-(pyridin-3-yl)phenyl)piperidine-1-carbonyl)phenyl)-6-(isopropylamino)nicotinamide]
14 | 0.0437 | 106 | 0.0275 | ~0.0741 | 2.19 | Cc1ccc(C(=O)N2CC(c3ccc(-c4ccc5cnn(C)c5c4)cc3)C2)cc1NC(=O)c1ccc(NC(C)C)nc1 [Compound #36, 6-(isopropylamino)-N-(2-methyl-5-(3-(4-(1-methyl-1H-indazol-6-yl)phenyl)azetidine-1-carbonyl)phenyl)nicotinamide]
15 | 0.0437 | 108 | 0.0933 | 0.0355 | 3.55 | Cc1ccc(C(=O)N2CCC(c3ccc(-c4cnn(C5CCC5)c4)cc3)CC2)cc1NC(=O)c1ccc(NC(C)C)nc1 [Compound 248, N-(5-(4-(4-(1-cyclobutyl-1H-pyrazol-4-yl)phenyl)piperidine-1-carbonyl)-2-methylphenyl)-6-(isopropylamino)nicotinamide]
16 | 0.0372 | 103 | 0.162 | 0.234 | > 10 | Cc1ccc(C(=O)N2CC(c3ccc(-c4cnn(C)c4)cc3)C2)cc1NC(=O)c1cccs1 [Compound 84, N-(2-methyl-5-(3-(4-(1-methyl-1H-pyrazol-4-yl)phenyl)azetidine-1-carbonyl)phenyl)thiophene-2-carboxamide]
17 | 0.0363 | 113 | 0.0912 | 0.0437 | 5.62 | CCCCCCN1CCC(C(=O)Nc2cc(C(=O)N3CCC(c4ccc(-c5cnn(C)c5)cc4)CC3)ccc2C)CC1 [Compound 216]
18 | 0.0339 | 103 | 0.0295 | 0.174 | > 15.1 | Cc1ccc(C(=O)N2CC(c3ccc(-c4ccc5cnccc5c4)cc3)C2)cc1NC(=O)c1ccc(NC(C)C)nc1 [Compound 29, 6-(isopropylamino)-N-(5-(3-(4-(isoquinolin-6-yl)phenyl)azetidine-1-carbonyl)-2-methylphenyl)nicotinamide]
19 | 0.0302 | 102 | 0.0912 | 0.0468 | 1.2 | Cc1cc(C(=O)Nc2cc(C(=O)N3CCC(c4ccc(-c5cnn(C)c5)cc4)CC3)ccc2C)ccn1 [Compound 98, 2-methyl-N-(2-methyl-5-(4-(4-(1-methyl-1H-pyrazol-4-yl)phenyl)piperidine-1-carbonyl)phenyl)isonicotinamide]
20 | 0.0204 | 100 | 0.0832 | 0.148 | 7.59 | COc1cccc(C(=O)Nc2cc(C(=O)N3CCC(c4ccc(-c5cnn(C)c5)cc4)CC3)ccc2C)c1 [Compound 94, 3-methoxy-N-(2-methyl-5-(4-(4-(1-methyl-1H-pyrazol-4-yl)phenyl)piperidine-1-carbonyl)phenyl)benzamide]
21 | ~0.0178 | 104 | 0.0525 | 0.0251 | 1.66 | Cc1ccc(C(=O)N2CC(c3ccc(-c4ccncc4)cc3)C2)cc1NC(=O)c1ccc(NC(C)C)nc1 [Compound 31, 6-(isopropylamino)-N-(2-methyl-5-(3-(4-(pyridin-4-yl)phenyl)azetidine-1-carbonyl)phenyl)nicotinamide]
